What is called melting point is the temperature, or range, at which the solid turns liquid.

SMILES strings stand for the structures.

On to `O=Cc1ccnc(OCC=CCNC(=O)CS(=O)Cc2ccco2)c1` (centres undefined), for which the melting point was 67.6 to 69.9 °C.

Regarding `CC(C)CC(S)C(=O)NC(C)(C)C(=O)NC(Cc1ccc(-c2cccs2)nc1)C(=O)O` (centres undefined), the melting point lay in the range of 194 to 196 °C. Compound `CCNn1cc(C(=O)O)c(=O)c2cc(F)c(Cl)cc21` came in with a melting point of 258 °C. The result for `CCc1nc2cc(COC)c(Cl)cc2n1-c1ccc(CCNC(=O)NS(=O)(=O)c2ccc(C)cc2)cc1` reads 135 °C; that for `O=C(Nc1cnns1)c1ccccc1`, 267 °C; that for `CC(C)Cn1c(CNC(=O)OC(C)(C)C)c(-c2ccccc2)c2cc(CO)ccc2c1=O`, 169 to 170 °C.

Compound `CN1CCC(c2c(O)cc(O)c3c(=O)cc(-c4ccc(C(F)(F)F)cc4)oc23)C1CO` (centres undefined) gave a melting point of 238 °C.

Consider `CCCCc1nn(-c2ccc(C(F)(F)F)cn2)cc1CO`, for which the melting point lay within 110 to 111 °C.

With `CC(=O)c1cc(Cn2ccnc2)ccc1O`, the melting point lay within 106 to 107 °C. `CCC(CC)Nc1c([N+](=O)[O-])cc(C)c(C=CN(C)C)c1[N+](=O)[O-]` registered a melting point of 100 to 102 °C.

`O=S1(=O)NCN(C2CC2)c2cc(Br)c(C(F)(F)F)cc21` yielded a melting point of 186 to 189 °C. The result for `c1ccc2c(c1)CC(CN1CCC(c3c[nH]c4ccccc34)CC1)C2` reads 146 to 147 °C; that for `CN1CCC2(CC1)C(=O)N(C)C(=O)N2c1ccccc1`, 132 to 134 °C.

On to `Nc1ccc2c(c1)C(CN1CCCCC1)CO2` (centres undefined), for which the melting point is 144 to 150 °C. The result for `CC1(C)CC(c2ccccc2)Nc2c(C(=O)O)cnn21` (single isomer, unassigned; (-)) reads 205 to 206 °C; that for `CC(=O)c1nn(-c2c(Cl)cc(C(F)(F)F)cc2Cl)c(N)c1S(C)=O` (centres undefined), 166 °C. Compound `COc1ccc(Oc2nc(Nc3cccc(C(=O)O)c3)nc(Oc3ccc(C=O)cc3OC)n2)cc1` had a melting point of 180 to 182 °C. Regarding `Nc1ccc(-c2scc3c2OCCO3)cc1`, the melting point was 98.5 to 99 °C.

Compound `Cn1c(=O)cc(-c2cccc(Cl)c2)c2cc(C(O)(c3ccc(Cl)cc3)c3cnccc3N)ccc21` (centres undefined) yielded a melting point of 262 °C. In the case of `Cc1ccc([C@H](CC(=O)O)NC(=O)Nc2c(O)ccn(Cc3ccccc3Cl)c2=O)cc1`, the melting point was 113 to 115 °C. Turning to `CC(C)(c1ccc(C(=O)Nc2cn3cc(Cl)ccc3n2)cc1)c1nnn[nH]1`, the melting point lay within 266 to 267 °C. With `O=C(c1ccccc1)N1CCc2[nH]c3cccc(-c4ccccc4F)c3c2CC1`, the melting point lay within 241 to 244 °C. Compound `CC(O[Si](C)(C)C(C)(C)C)C1C(=O)NC1C1CCCC(OCCF)C1O` (centres undefined) gave a melting point of 106 to 110 °C.

Compound `OC(c1ccccc1)(c1ccccc1)C1CCN(Cc2ccccc2)CC1` displayed a melting point of 89.5 to 90.5 °C. Compound `CCCCCCNc1nc(-c2ccccc2)c(-c2ccc(=O)n(C(C)C)n2)s1` registered a melting point of 90 to 92 °C.

With `Cc1nc(-n2ccc(OCc3ccccc3)cc2=O)sc1C(=O)NCc1cccnc1`, the melting point lay in the range of 208 to 209 °C. The result for `CCCCc1ccc(C#Cc2ccc(C=O)cc2)cc1` reads 76 to 78 °C. The figure for `CCOC(=O)c1ccc(S(=O)(=O)Oc2c(-c3ccccc3)cc(C(=O)c3ccccc3)cc2-c2ccccc2)cc1O` is 75 to 85 °C; for `COC(=O)C=C(C)C=CC1(O)C(C)=CC(=O)c2ccccc21` (centres undefined) it is 147 to 148 °C; for `Cc1nc(N2CCCN(Cc3ccc(F)cc3)C2=O)sc1C(=O)NCc1cccnc1` it is 48 to 50 °C. The result for `COCC(=O)N(CC(C)=NOC)c1c(C)cccc1C` reads 56 to 57 °C; that for `CC(C)(C)c1cc(CC(Cc2cc(C(C)(C)C)c(O)c(C(C)(C)C)c2)[N+](=O)[O-])cc(C(C)(C)C)c1O`, 161 to 165 °C.

Turning to `COc1cc2[nH]c(N(C)Cc3cccc(C4=NCCN4C)c3)nc(=O)c2c(C)c1OC`, the melting point fell in the range of 145 to 148 °C. For the compound `CC(=O)SCC(CC#N)C(=O)O` (centres undefined), the melting point lay in the range of 110 to 112 °C. Compound `COc1cc(Cc2cnc(N)nc2N)cc(OC)c1N` came in with a melting point of 209 to 210 °C. The figure for `CC(Cl)N1C(=O)CCC1=O` (centres undefined) is 83.5 to 84.5 °C; for `CNc1nc(C)c(-c2ccnc(Nc3ccc(Cl)c(CO)c3)n2)s1` it is 191 to 193 °C. Compound `Cc1cccc(C=Cc2c(C(C)C)nc(C(C)C)c(CO)c2-c2ccc(F)cc2)c1` returned a melting point of 97 to 99 °C. The figure for `CCOC(=O)N(C)CC1CN(c2c(F)cc3c(=O)c(C(=O)O)cn(C4CC4)c3c2F)CCO1` (centres undefined) is 128 to 131 °C; for `Cc1c(Cl)ccc2[nH]c(CO)cc12` it is 108 °C.

`CCOC(=O)Cc1ccc(-n2c(-c3cccnc3N)nc3ccc(-c4cccnc4)nc32)cc1` yielded a melting point of 155 to 157 °C. As to `O=c1nc(-c2ccccn2)sc2ccc(OCc3ccccc3)cc12`, the melting point is 198 to 199 °C. The result for `CS(=O)(=O)Nc1cccc(-c2cccc(-c3nc(-c4ccc(C(F)(F)F)cc4)cc(C(F)(F)F)n3)c2)c1` reads 191 °C; that for `O=C(Nc1nccs1)c1c(C(O)CO)nc2c(C(F)(F)F)cccc2c1O` (centres undefined), 255 °C; that for `CCCOc1ccc(CC(C)=O)cc1S(N)(=O)=O`, 106 to 107 °C. The result for `COc1ccc(C2C(N=[N+]=[N-])C(=O)N2c2ccc(C(=O)O)cc2)cc1` (centres undefined) reads 127 to 129 °C. The result for `COc1ccc(NC2=NN(c3ccccc3)CC2)cc1` reads 153 to 154 °C; that for `COc1ccc(-c2ccc3n[nH]c(=O)n3n2)cc1F`, 289 to 290 °C. With `O=C(O)c1ccc(NCCCc2ccc(Cl)cc2)cc1`, the melting point is 191 to 192 °C.

In turn, `CCOc1ccc2c(c1)n(C1CCCCC1)c(=O)n2S(=O)(=O)c1ccc(C(=O)NC(C)(C)CO)cc1OC` had a melting point of 218 °C.

Take `NS(=O)(=O)Cc1ccccc1-c1nnc(S)o1`: the melting point was 224 to 227 °C. The figure for `CC12CCC3c4cc([N+](=O)[O-])c(O)cc4CCC3C1CCC2=O` (centres undefined) is 178 to 180 °C; for `NCCCOc1ccc(OCCCN)cc1` it is 73 to 74 °C; for `CS(=O)(=O)NCCCCC(c1cc(F)ccc1F)S(=O)(=O)c1ccc(Cl)cc1` (centres undefined) it is 106 to 107 °C. In the case of `COc1cccc2c1OCN(CCc1ccccc1Cl)C2`, the melting point was in the range of 79 to 81 °C. `CC(CO)Oc1cc(-n2nc3n(c2=O)CCCC3)c(Cl)cc1Cl` (centres undefined): the melting point fell in the range of 54 to 57 °C.

The compound `COc1ccc(C(=O)NCc2ccc(C)n2CCC#N)cc1OC` yielded a melting point of 175 to 176 °C.

For the compound `Cc1c(O)cc2c(c1C)NCC2`, the melting point was in the range of 164 to 167 °C.

For the compound `CC(=O)N1CCC(CCCCC(=O)O)CC1`, the melting point lay in the range of 198 to 203 °C.

`c1ncn(Cc2ccc3c(c2)-c2[nH]nc(-c4ccsc4)c2C3)n1` came in with a melting point of 243 to 245 °C. The figure for `COc1cccc(C2C(C(=O)O)CC(=O)N2c2ccccc2)c1` (centres undefined) is 145 to 149 °C. The result for `Nc1nc(-c2ccncc2)nc2c1c(Cl)nn2C1CCCC1` reads 132 to 134 °C; that for `O=C1CCCc2c1ccc1c2OCO1`, 132 to 136 °C. The result for `[N-]=[N+]=Nc1cc(N)cc(I)c1` reads 89 to 91 °C. `COc1cc(C(C)=O)ccc1OCCCN1CCC(C(O)(c2ccc(F)c(F)c2)c2ccc(F)c(F)c2)CC1` yielded a melting point of 143 to 146 °C.

In turn, `CCOC(=O)c1c(C)cc(OCc2cccc(OCc3ccc4ccccc4n3)c2)cc1O` had a melting point of 127 to 128 °C. The figure for `CC1(C)Oc2ccc(Br)cc2C(Oc2ccnc(O)c2)C1(C)O` (centres undefined) is 251 to 252 °C; for `CCOc1ncc(S(=O)(=O)N2CCN(CC)CC2)cc1C(=O)Nc1c(C(N)=O)nn(CCOC)c1CC` it is 156 °C; for `O=S(=O)(c1ccccc1)c1c[nH]c2ccncc12` it is 261 to 263 °C. With `COc1ccc2c(n1)c(CCNC(=O)c1ccco1)c1n2CCCO1`, the melting point was 139 to 140 °C. The figure for `Nc1nc(N)c(CCCNc2ccc(C(=O)N[C@@H](CCC(=O)O)C(=O)O)cc2F)c(=O)[nH]1` is above 175 °C; for `CCCN(CCC)CCCCCOc1ccc2oc(-c3ccc(OC)cc3)cc(=O)c2c1` it is 63 to 64 °C; for `COC(=O)CCCC#Cc1cc(C)c2oc(=O)n(C)c2c1` it is 97 to 98 °C.

With `N#CCc1cc(-c2ccc(Cl)cc2)n(-c2ccc(S(N)(=O)=O)cc2)n1`, the melting point was 212 to 214 °C. The figure for `CCOC(=O)/C=C/c1cn(-c2ccccc2)nc1OCc1ccc(OCc2nc(-c3ccco3)oc2C)c(OC)c1` is 177 to 178 °C; for `COCCc1nc2c(N)nc3ccccc3c2n1CCCCCCCCNS(=O)(=O)c1ccccc1` it is 146 to 149 °C; for `COc1ccc(C#CC(C)N(O)C(N)=O)o1` (centres undefined) it is 131 °C. The result for `CCOC(=O)Cn1cc(F)cnc1=O` reads 121 °C; that for `NC(=O)Cc1cccc2c(=O)cc(C3=CCCCC3)oc12`, 244 to 245 °C.

`CCCCCCCCCCCC(=O)c1c[nH]c(C(=O)OC)c1`: the melting point was in the range of 102 to 103 °C. The figure for `OCCc1ccc(-c2ccc(Cl)cc2)cc1` is 113 to 115 °C; for `O=[N+]([O-])c1cccc(OCCc2c[nH]cn2)c1` it is 174 to 178 °C; for `CN1CCN(c2cccc3c2ccn3S(=O)(=O)c2ccc(F)cc2)CC1` it is 151 to 152 °C.

`CS(=O)(=O)c1ccc2c3c(cccc13)C(=O)N2` came in with a melting point of 242 to 243 °C. The figure for `O=C(O)c1csc2c1OC(c1ccccc1)(C1CCCCC1)CC2=O` (centres undefined) is 269 to 275 °C; for `CCCc1c(OCC=CS(=O)(=O)c2ccc(CC(=O)O)c(F)c2)ccc(C(C)=O)c1O` it is 249 to 251 °C; for `COc1cn(-c2cc(F)c(Br)cc2F)nc(-c2ccnn2-c2ccccc2)c1=O` it is 211 to 213 °C.

In the case of `COc1ccc(Cc2nc3cc(Cl)cc(CC(N)=O)c3o2)cc1OC1CCCC1`, the melting point lay within 162 to 164 °C. The figure for `COC1(c2csc(Sc3ccc(/C(C)=N/O)cn3)c2)CCOCC1` is 151 to 153 °C.

(Values after a melting point compilation (Tetko et al.; mined from patent text by program, amines drawn as free bases though some values may be those of a salt).)
